Measured values published in patent US20150037825A1 (priority 2011, published 2015).
Structures can show the parent of a compound that is named as a salt. Marks after values point to notes of the source that are not given here.

Tested on: plasma metabolites
Settings: rat, in vivo

Compound: Nc1ccccc1Cl [2-Chloroaniline]
- 3,4-Dihydroxyphenylalanine (DOPA), ratio versus control: 0.76
- 3,4-Dihydroxyphenylglycol (DOPEG), ratio versus control: 0.87
- 3-Hydroxyindole, ratio versus control: 1.40
- 3-Indoxylsulfate, ratio versus control: 1.68
- 3-Methoxytyrosine, ratio versus control: 1.48
- Cytosine, ratio versus control: 1.41
- Ketoleucine, ratio versus control: 0.60
- Ribal, ratio versus control: 1.24
- Serotonin (5-HT), ratio versus control: 2.64
- biomarkers of table 12a and/or 12b (early indicators of blood anemia) altered as early as: 7 days

Compound: Nc1ccc(Cl)c([N+](=O)[O-])c1 [4-Chloro-3 nitroaniline]
- 3-Hydroxyindole, ratio versus control: 1.25
- 3-Indoxylsulfate, ratio versus control: 1.34
- 3-Methoxytyrosine, ratio versus control: 1.90
- Cytosine, ratio versus control: 1.75
- Ribal, ratio versus control: 1.89
- Serotonin (5-HT), ratio versus control: 9.50

Compound: Nc1ccc(Cl)c([N+](=O)[O-])c1 [4-Chloro-3-nitroaniline]
- 3,4-Dihydroxyphenylalanine (DOPA), ratio versus control: 0.93
- 3,4-Dihydroxyphenylglycol (DOPEG), ratio versus control: 0.53
- Ketoleucine, ratio versus control: 0.61
- biomarkers of table 12a and/or 12b (early indicators of blood anemia) altered as early as: 7 days

Compound: COc1cccc2c1C(=O)c1c(O)c3c(c(O)c1C2=O)C[C@@](O)(C(=O)CO)C[C@@H]3O[C@H]1C[C@H](N)[C@H](O)[C@H](C)O1 [Adriamycin hydrochloride]
- 3-Hydroxybutyrate, plasma, ratio vs control: 0.66 *
- 18-Hydroxy-11-deoxycorticosterone, plasma, ratio vs control: 0.44 *
- Choline plasmalogen No 02, plasma, ratio vs control: 1.18 *
- Citrate, plasma, ratio vs control: 0.86
- Ketoleucine, plasma, ratio vs control: 0.69 *
- Lignoceric acid (C24:0), plasma, ratio vs control: 2.04 *
- Taurine, plasma, ratio vs control: 1.39 *
- Tricosanoic acid (C23:0), plasma, ratio vs control: 2.14 *

Compound: Nc1ccccc1 [Aniline]
- 3,4-Dihydroxyphenylalanine (DOPA), ratio versus control: 0.81
- 3,4-Dihydroxyphenylglycol (DOPEG), ratio versus control: 0.84
- 3-Hydroxyindole, ratio versus control: 1.61
- 3-Indoxylsulfate, ratio versus control: 1.64
- 3-Methoxytyrosine, ratio versus control: 1.35
- Cytosine, ratio versus control: 1.62
- Ketoleucine, ratio versus control: 0.94
- Ribal, ratio versus control: 1.66
- biomarkers of table 12a and/or 12b (early indicators of blood anemia) altered as early as: 7 days

Compound: N.N.O=C([O-])C1(C(=O)[O-])CCC1.[Pt+2] [Carboplatin]
- 3-Hydroxybutyrate, plasma, ratio vs control: 0.74 *
- 4-Hydroxyphenylpyruvate, plasma, ratio vs control: 0.39 *
- 14-Methylhexadecanoic acid, plasma, ratio vs control: 0.72 *
- 21-Hydroxyprogesterone (11-Deoxycorticosterone), plasma, ratio vs control: 0.09 *
- Ascorbic acid, plasma, ratio vs control: 0.84 *
- Choline plasmalogen (C18, C20:4), plasma, ratio vs control: 0.89 *
- Corticosterone, plasma, ratio vs control: 0.31 *
- Fructose-6-phosphate, plasma, ratio vs control: 1.74 *
- Glucose-6-phosphate, plasma, ratio vs control: 2.2 *
- Histidine, plasma, ratio vs control: 1.17 *
- Indole-3-lactic acid, plasma, ratio vs control: 1.13 *
- Ornithine, plasma, ratio vs control: 1.11 *
- Phenylalanine, plasma, ratio vs control: 1.2 *
- Phosphate (inorganic and organic phosphates), plasma, ratio vs control: 1.57 *
- Phosphatidylcholine (C18:0, C18:2), plasma, ratio vs control: 1.22 *
- Progesterone, plasma, ratio vs control: 0.49*
- Taurine, plasma, ratio vs control: 1.47 *
- Threonic acid, plasma, ratio vs control: 1.51 *
- Tryptophan, plasma, ratio vs control: 1.17 *

Compound: O=P1(N(CCCl)CCCl)NCCCO1 (stereo not drawn) [Cyclophosphamide monohydrate]
- 3-Hydroxybutyrate, plasma, ratio vs control: 0.75 *
- 18-Hydroxy-11-deoxycorticosterone, plasma, ratio vs control: 0.16 *
- Choline plasmalogen No 02, plasma, ratio vs control: 1.13 *
- Citrate, plasma, ratio vs control: 0.78 *
- Isoleucine, plasma, ratio vs control: 1.23 *
- Ketoleucine, plasma, ratio vs control: 0.88 *
- Leucine, plasma, ratio vs control: 1.33 *
- Lignoceric acid (C24:0), plasma, ratio vs control: 1.29 *
- Taurine, plasma, ratio vs control: 1.21 *
- Tricosanoic acid (C23:0), plasma, ratio vs control: 1.44 *
- Valine, plasma, ratio vs control: 1.25 *

Compound: Nc1ccn([C@@H]2O[C@H](CO)[C@@H](O)[C@@H]2O)c(=O)n1 [Cytarabin]
- 3-Hydroxybutyrate, plasma, ratio vs control: 0.53 *
- 18-Hydroxy-11-deoxycorticosterone, plasma, ratio vs control: 0.13 *
- Choline plasmalogen No 02, plasma, ratio vs control: 1.11 *
- Citrate, plasma, ratio vs control: 0.81 *
- Isoleucine, plasma, ratio vs control: 1.1 *
- Ketoleucine, plasma, ratio vs control: 0.75 *
- Leucine, plasma, ratio vs control: 1.12 *
- Lignoceric acid (C24:0), plasma, ratio vs control: 1.31 *
- Taurine, plasma, ratio vs control: 1.27 *
- Tricosanoic acid (C23:0), plasma, ratio vs control: 1.3
- Valine, plasma, ratio vs control: 1.1 *

Compound: C[C@H]1C[C@@H]2[C@H]([C@@H](O)C[C@@]3(C)[C@H]2CC[C@]3(O)C(=O)CO)[C@@]2(C)C=CC(=O)C=C12 [Methylprednisolone]
- 18-Hydroxy-11-deoxycorticosterone, ratio versus control: 0.15 *
- Aspartate, ratio versus control: 1.37 *
- Cholesterolester No 01, ratio versus control: 1.08 *
- Glutamate, ratio versus control: 1.11 *
- Glycerol-3-phosphate, polar fraction, ratio versus control: 1.4 *
- Ketoleucine, ratio versus control: 0.75 *
- Pyruvate, ratio versus control: 0.65 *

Compound: C=CC[C@@H]1/C=C(\C)C[C@H](C)C[C@H](OC)[C@H]2O[C@@](O)(C(=O)C(=O)N3CCCC[C@H]3C(=O)O[C@H](/C(C)=C/[C@@H]3CC[C@@H](O)[C@H](OC)C3)[C@H](C)[C@@H](O)CC1=O)[C@H](C)C[C@@H]2OC [Tacrolimus]
- 18-Hydroxy-11-deoxycorticosterone, ratio versus control: 0.48 *
- Aspartate, ratio versus control: 1.42 *
- Cholesterolester No 01, ratio versus control: 1.05 *
- Glutamate, ratio versus control: 1.29 *
- Glycerol-3-phosphate, polar fraction, ratio versus control: 1.54 *
- Ketoleucine, ratio versus control: 0.85 *
- Pyruvate, ratio versus control: 0.77 *

Compound: Lead acetate trihydrate
- Cholesterolester No 01, plasma, ratio vs control: 1.28 *
- Glucose, plasma, ratio vs control: 0.91
- Phosphatidylcholine (C16:0, C18:2), plasma, ratio vs control: 1.06 *
- Sphingomyelin (d18:2, C18:0), plasma, ratio vs control: 1.09 *
- TAG (C18:1, C18:2), plasma, ratio vs control: 1.33 *
- TAG (C18:2, C18:2), plasma, ratio vs control: 1.48 *
- TAG No 01, plasma, ratio vs control: 1.5 *
